Experimental data published in US11484543B2, “Compositions and methods for diagnosing and treating diseases and disorders associated with mutant KCNJ5” (The Rockefeller University, priority 2017, dated 2022).

Target: T1, KCNJ3/KCNJ5^G151R (Homo sapiens, UniProt P48544, G151R)
T1 construct: GFP; expressed in transfected cells; host or cells: HEK293T (American Type Culture Collection), transient co-transfection
T1 sequence (P48544 1-419 G151R): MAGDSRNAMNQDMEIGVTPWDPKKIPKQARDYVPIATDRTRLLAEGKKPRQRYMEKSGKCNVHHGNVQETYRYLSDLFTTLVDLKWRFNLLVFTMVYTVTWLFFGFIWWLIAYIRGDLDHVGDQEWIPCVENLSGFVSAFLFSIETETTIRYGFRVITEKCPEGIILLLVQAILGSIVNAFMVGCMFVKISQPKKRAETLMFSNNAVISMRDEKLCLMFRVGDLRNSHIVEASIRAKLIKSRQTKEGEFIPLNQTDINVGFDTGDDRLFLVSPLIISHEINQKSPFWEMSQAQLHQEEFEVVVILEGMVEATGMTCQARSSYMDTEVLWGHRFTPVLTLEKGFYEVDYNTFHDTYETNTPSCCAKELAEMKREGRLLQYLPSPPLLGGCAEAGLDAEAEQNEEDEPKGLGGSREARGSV
T1 sequence (P48549 1-501 partner): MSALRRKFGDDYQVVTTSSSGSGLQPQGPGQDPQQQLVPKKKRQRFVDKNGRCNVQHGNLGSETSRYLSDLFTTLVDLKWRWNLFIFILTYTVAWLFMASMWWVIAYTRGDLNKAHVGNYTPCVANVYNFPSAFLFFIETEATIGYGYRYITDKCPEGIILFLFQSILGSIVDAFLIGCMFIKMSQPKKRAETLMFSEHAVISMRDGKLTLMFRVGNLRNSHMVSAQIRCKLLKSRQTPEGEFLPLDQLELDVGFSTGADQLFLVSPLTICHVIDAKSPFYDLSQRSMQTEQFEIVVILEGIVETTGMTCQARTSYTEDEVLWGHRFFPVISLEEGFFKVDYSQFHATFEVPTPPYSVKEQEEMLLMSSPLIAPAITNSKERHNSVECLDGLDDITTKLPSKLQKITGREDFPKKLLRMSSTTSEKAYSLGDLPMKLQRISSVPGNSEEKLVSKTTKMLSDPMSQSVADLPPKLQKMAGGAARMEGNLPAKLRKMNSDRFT
Assay: Perforated whole-cell patch clamp, KCNJ3/KCNJ5^G151R heterotetramers in HEK293T cells
Assay type: cell-based
Protocol: HEK293T cells (American Type Culture Collection) were used for transient expression of GFP-tagged KCNJ5 or KCNJ3. The cells were grown in Dulbecco's modified Eagle medium (DMEM; Invitrogen) supplemented with 10% FBS (Invitrogen) in 5% CO2 and 95% air at 37° C. Cells were grown to 50-70% confluence for transfection, and the corresponding cDNAs (Choi et al., 2011, Science 331:768-772) were simultaneously applied to the cells using TurboFect transfection reagent according to the manufacturer's protocol (Fermentas). […]
Within 24 hr after transfection, the cells were treated with trypsin-containing medium (TrypLE Express) (Gibco) for 10 minutes to detach the cells. […] Fluorescence signal (an indication of positive transfection) was detected with an intensified video imaging system including a SIT 68 camera (Long Island Industries). […] After forming a high resistance seal (>2 GΩ), the membrane capacitance was monitored until the whole-cell patch configuration was formed. The cell membrane capacitance was measured and compensated. The K/cation currents were measured from −80 mV to 20 mV with 20 mV steps by an Axon 200A patch-clamp amplifier. The currents were low-pass filtered at 1 KHz and digitized by an Axon interface (Digidata 1200) and were analyzed using the pClamp software system 9 (Axon). […]

| Compound | inhibition of KCNJ3/KCNJ5^G151R currents (20 μM, 10 minutes after addition) | inhibition of mutant KCNJ5 in electrophysiological studies (10 μM, heterotetramers of KCNJ3 and mutant or WT KCNJ5 (FIG. 13)) |
| --- | --- | --- |
| CC[C@H]1OC(=O)[C@H](C)[C@@H](O[C@H]2C[C@@](C)(OC)[C@@H](O)[C@H](C)O2)[C@H](C)[C@@H](O[C@@H]2O[C@H](C)C[C@H](N(C)C)[C@H]2O)[C@](C)(O)C[C@@H](C)/C(=N\OCOCCOC)[C@H](C)[C@@H](O)[C@]1(C)O [Roxithromycin, roxithromycin] | almost complete inhibition |  |
| N-demethyl-N-isobutyl-8,9-anhydroerythromycin A 6,9-hemiacetal [PLUX37] |  | specific inhibition of mutant KCNJ5 |
